Source: US7537786B2, “Complex of drug-carbon nanohorn and a process for producing the complex” (NEC Corporation, priority 2005, dated 2009)

Key:
MC3T3-E1 cells = experiment: ALP (alkaline phosphatase) activity assay; type: cell-based, mouse; conditions: MC3T3-E1, 10 days, differentiation-inducing medium with rhBMP-4
Experimental: Mouse osteoblastic cell (MC3T3-E1) lines were generously provided by Dr. Imamura (Cancer Institute, Japanese Foundation For Cancer Research). MC3T3-E1 cells were maintained in α-minimum essential medium (α-MEM) supplied with 5% FBS, […] in continuous culture at 37° C. in a humidified atmosphere of 5% CO2 and 95% air, and these cells were passaged every 3-4 days.
MC3T3-E1 cells were plated at 26,000 cells/cm^2 in 24 well plates and were grown until confluent. Next, the culture medium was exchanged with differentiation-inducing medium which consisted of α-MEM, 5% FBS, 100 U/ml penicillin, 100 μg/ml streptomycin, 50 μM ascorbic acid, 10 mM β-glycerophosphate and 20 ng/ml rhBMP-4. […]
For ALP activity assay, the medium was removed, and the cells were washed 3 times with TBS (20 mM Tris pH7.4, 150 mM NaCl), then harvested into 250 μl of TBS (contaning 0.2% Triton X-100) by scraping them on ice, and sonicated on ice for 5 min. […] The supernatant was mixed with p-nitro phosphate according to the manufacture's protocol, and the amount of p-nitrophenol released in 10 min was assessed by spectrophotometry (405 nm) with model 550 microplate-reader (Bio-Rad). Protein concentration of supernatant was assessed with protein quantitative assay kit (DC Protein Assay Kit) by the Lowry method. […]

NCI-H460 cells = experiment: WST-1 assay for cancer cell viability; type: cell-based, human; conditions: WST-1, incubation 46 and 72 hours
Experimental: The effect of CDDP released from CNHox was examined using the WST-1 assay. The CDDP-CNHox powder was added to human derived lung cancer cells NCI-H460. CDDP is a drug which has a effect on human lung cancer. These cells were maintained in RPMI-1640 medium containing 5% FBS at 37° C. in a humidified atmosphere with CO2 and air. For these cells, CDDP-CNHox or CDDP or CNHox was added respectively, and after the addition, each sample was examined. NCI-H460 cells were seeded at 4,000 cells/well and were cultured for 43 hours. Meanwhile, the cells were cultured for 67 hours when seeded at 2,500 cells/well (no addition of CDDP-CNHox or CDDP). And then it was confirmed that the NCI-H460 cells were extinct by drug addition. The amount of the extinct NCI-H460 cells was estimated by observing the decrease in the emission intensity to indicate the absorbency of formazan (with blue dye) showing the living of cells. And also, the NCI-H460 cells were directly observed using the optical microscope.

| SMILES | concentration at which ALP activity was increased (MC3T3-E1 cells) | viability rate of NCI-H460 cells (NCI-H460 cells) |
| --- | --- | --- |
| C[C@@H]1C[C@H]2[C@@H]3CCC4=CC(=O)C=C[C@]4(C)[C@@]3(F)[C@@H](O)C[C@]2(C)[C@@]1(O)C(=O)CO [DEX, Dexamethasone] | no less than 0.05 μM | – |
| [NH2][Pt]([NH2])([Cl])[Cl] [CDDP, cisplatin] | – | decreased dose-dependently |
